Earlier results on one compound are cited in US20240335532A1, “NANOPARTICULATE FORMULATION” (NewImmune II, LLC, priority 2021, published 2024).

Each structure is given as a SMILES string. Where two headings read alike, the source gives them in different places.

The test system of data set [1] is influenza. Conditions: 50 μg intraperitoneally, with influenza vaccine, mice.
For data set [2] the following is noted: single subcutaneous dose, rats.
For data set [3] the following is noted: intravenous 0.5 to 5.0 mg/kg, dogs.
For data set [4] the following is noted: intravenous 2 mg/kg/day, gestational Days 6-18, pregnant rabbits.
For data set [5] the following is noted: 2000 and 5000 mg/kg under occlusion, rabbits.
The conditions of data set [6]: 30 mg subcutaneous dose, healthy human volunteers.
Data set [7] has as its system influenza. The note with it: topical pre-treatment, young and elderly individuals.
For data set [8] the following is noted: dermal exposure, mice.
For data set [9] the following is noted: mice.
The conditions of data set [10]: rats.
The conditions of data set [11]: monkeys.

Take `CC(C)Cn1cnc2c(N)nc3ccccc3c21` [imiquimod, 1-(2-methylpropyl)imidazo[4,5-c]quinolin-4-amine]: the “pH of maximum solubility in aqueous solution” value (Britton-Robinson buffer) is reported as no more than 2. Moreover, the aqueous solubility result (above pH 6) is “only sparingly soluble”. Besides, the “solubility in aqueous solution” value (physiological pH) is “very low solubility”. Also, the “humoral immune responses against the virus” value in the data set with influenza [1] was “significantly expedited and augmented”. Also, the “protection against early lethal viral challenges” value in the data set with influenza [1] is listed as “conferred significant protection”. Further, the subcutaneous lethal dose in data set [2] is recorded as 20 mg/kg. The “cardiovascular and nervous system effects” value in data set [3] was “produced cardiac stimulation, central nervous system stimulation and some evidence of autonomic nervous system inhibition”. In addition, the “embryofetal toxicity or teratogenicity” value in [4] is given as “No treatment related effects”. In addition, the dermal toxicity result in data set [5] is “no deaths and no signs of toxicity other than mild transient erythema at the application site”. Besides, the tolerability entry in data set [6] is recorded as “well tolerated”. Besides, the “immunogenicity of influenza vaccination” value in the data set on influenza [7] is “significantly improves the immunogenicity”. Moreover, in data set [8], the “incidence of tumors or non-neoplastic lesions” value was “no increase”. The single dose toxicity entry in data set [9], in [10] and in [11] was “high degree of safety” throughout.
